In patent US20250034216A1, “STEREOSELECTIVE COVALENT LIGANDS FOR ONCOGENIC AND IMMUNOLOGICAL PROTEINS” (The Scripps Research Institute, priority 2021, published 2025):

How the values were obtained:
Test in all cases: IA-DTB cysteine engagement
Type in all cases: binding
Details in all cases: 22Rv1 cells, 20 μM probe, 1 h, relative to DMSO
APOOL_C79 = biological target: T1, APOOL_C79 (Homo sapiens, UniProt Q6UXV4)
T1 construct: endogenous in cells; host or cells: 22Rv1
T1 sequence (Q6UXV4 28-268): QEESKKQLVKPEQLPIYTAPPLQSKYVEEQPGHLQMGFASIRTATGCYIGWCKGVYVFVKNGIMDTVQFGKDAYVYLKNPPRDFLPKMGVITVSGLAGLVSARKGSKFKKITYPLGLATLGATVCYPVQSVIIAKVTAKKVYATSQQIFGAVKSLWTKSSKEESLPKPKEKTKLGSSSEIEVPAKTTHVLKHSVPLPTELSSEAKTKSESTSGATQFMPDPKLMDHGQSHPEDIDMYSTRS
Summary of the method: (§1)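 Read-out is TMT-based cysteine engagement, expressed as each reporter ion intensity divided by the average of the DMSO channels. Before that, probe-treated cell lysates were capped with IA-DTB, digested, enriched on streptavidin and TMT-tagged. PSMs with DMSO summed intensity <10,000 or DMSO CV >0.5 were excluded.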

CUL5_C112 = biological target: T2, CUL5_C112 (Homo sapiens, UniProt Q93034)
T2 construct: endogenous in cells; host or cells: 22Rv1
T2 sequence (Q93034 1-780): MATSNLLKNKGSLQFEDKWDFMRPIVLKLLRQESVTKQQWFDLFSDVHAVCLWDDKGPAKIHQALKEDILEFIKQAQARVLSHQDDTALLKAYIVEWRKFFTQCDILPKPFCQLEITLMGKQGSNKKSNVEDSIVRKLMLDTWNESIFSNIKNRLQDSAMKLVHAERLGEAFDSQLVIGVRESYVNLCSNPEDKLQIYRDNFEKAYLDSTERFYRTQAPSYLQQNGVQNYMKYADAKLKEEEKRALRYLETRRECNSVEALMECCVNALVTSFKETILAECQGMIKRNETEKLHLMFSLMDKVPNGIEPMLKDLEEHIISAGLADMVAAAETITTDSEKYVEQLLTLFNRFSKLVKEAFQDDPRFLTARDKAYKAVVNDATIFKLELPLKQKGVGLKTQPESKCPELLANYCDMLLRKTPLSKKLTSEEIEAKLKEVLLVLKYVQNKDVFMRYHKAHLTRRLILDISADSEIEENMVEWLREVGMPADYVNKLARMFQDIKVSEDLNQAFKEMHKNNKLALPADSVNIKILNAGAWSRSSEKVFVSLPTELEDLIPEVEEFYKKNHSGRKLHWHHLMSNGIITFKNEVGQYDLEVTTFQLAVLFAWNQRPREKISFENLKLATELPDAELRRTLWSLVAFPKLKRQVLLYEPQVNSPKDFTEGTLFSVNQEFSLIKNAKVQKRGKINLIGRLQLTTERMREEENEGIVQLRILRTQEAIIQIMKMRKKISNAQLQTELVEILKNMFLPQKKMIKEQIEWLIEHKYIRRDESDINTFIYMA
Summary of the method: as §1

SCAMP4_C20 = biological target: T3, SCAMP4_C20 (Homo sapiens, UniProt Q969E2)
T3 construct: endogenous in cells; host or cells: 22Rv1
T3 sequence (Q969E2 1-229): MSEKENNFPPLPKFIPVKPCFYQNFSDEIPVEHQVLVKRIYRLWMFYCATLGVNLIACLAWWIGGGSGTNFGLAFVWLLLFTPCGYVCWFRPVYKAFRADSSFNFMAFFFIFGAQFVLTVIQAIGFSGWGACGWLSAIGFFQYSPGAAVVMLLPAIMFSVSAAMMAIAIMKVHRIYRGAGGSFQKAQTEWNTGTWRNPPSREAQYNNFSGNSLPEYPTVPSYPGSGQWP
Summary of the method: as §1

TRPM4_C759 = biological target: T4, TRPM4_C759 (Homo sapiens, UniProt Q8TD43)
T4 construct: endogenous in cells; host or cells: 22Rv1
Summary of the method: as §1

T4 sequence (Q8TD43 whole entry): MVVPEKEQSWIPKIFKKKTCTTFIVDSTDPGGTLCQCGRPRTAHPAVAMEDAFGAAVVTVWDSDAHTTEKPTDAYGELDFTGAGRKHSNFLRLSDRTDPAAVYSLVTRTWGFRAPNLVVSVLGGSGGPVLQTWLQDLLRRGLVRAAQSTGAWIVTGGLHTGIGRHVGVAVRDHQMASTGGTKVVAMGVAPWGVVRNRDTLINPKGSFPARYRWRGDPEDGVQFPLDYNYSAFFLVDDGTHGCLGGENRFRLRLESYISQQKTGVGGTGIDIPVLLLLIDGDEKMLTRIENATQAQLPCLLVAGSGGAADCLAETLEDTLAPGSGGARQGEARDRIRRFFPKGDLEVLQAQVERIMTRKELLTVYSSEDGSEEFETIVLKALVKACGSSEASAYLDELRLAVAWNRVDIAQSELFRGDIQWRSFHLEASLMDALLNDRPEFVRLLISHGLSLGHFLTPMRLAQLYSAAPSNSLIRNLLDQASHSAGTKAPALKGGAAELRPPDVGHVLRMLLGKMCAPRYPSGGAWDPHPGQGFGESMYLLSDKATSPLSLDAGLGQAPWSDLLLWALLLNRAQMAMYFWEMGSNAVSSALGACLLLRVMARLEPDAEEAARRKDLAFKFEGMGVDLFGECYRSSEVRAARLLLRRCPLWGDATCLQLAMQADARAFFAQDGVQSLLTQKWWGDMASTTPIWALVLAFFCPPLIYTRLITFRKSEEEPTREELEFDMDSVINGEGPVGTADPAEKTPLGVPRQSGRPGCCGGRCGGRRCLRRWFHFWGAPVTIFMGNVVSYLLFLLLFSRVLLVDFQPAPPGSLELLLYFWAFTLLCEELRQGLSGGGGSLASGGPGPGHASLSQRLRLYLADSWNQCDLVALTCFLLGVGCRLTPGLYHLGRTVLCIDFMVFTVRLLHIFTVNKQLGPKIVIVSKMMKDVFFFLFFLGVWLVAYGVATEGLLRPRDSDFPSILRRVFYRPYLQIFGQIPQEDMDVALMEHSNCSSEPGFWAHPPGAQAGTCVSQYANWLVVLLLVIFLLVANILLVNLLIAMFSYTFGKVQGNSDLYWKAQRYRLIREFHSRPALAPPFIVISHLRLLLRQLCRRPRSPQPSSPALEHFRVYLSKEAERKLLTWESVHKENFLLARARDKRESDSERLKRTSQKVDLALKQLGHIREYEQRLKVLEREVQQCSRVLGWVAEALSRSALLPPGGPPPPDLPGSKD

Row | % engagement APOOL_C79 (APOOL_C79) | % engagement CUL5_C112 (CUL5_C112) | % engagement SCAMP4_C20 (SCAMP4_C20) | Compound | % engagement TRPM4_C759 (TRPM4_C759)
1 | 69% | −20% | 100% | C=CC(=O)N1C[C@H](c2ccc(Br)cc2)[C@H]1C(=O)Nc1cccc2cccnc12 [MY-3B, (2S,3S)-1-acryloyl-3-(4-bromophenyl)-N-(quinolin-8-yl)azetidine-2-carboxamide] | 76.25%
2 | 73% | 11% | 85.5% | C=CC(=O)N1C[C@H](c2ccc(Br)cc2)[C@@H]1C(=O)Nc1cccc2cccnc12 [MY-1B, (2R,3S)-1-acryloyl-3-(4-bromophenyl)-N-(quinolin-8-yl)azetidine-2-carboxamide] | 48.75%
3 | 48% | −14.75% | 72.5% | C=CC(=O)N1C[C@H](c2ccc(Br)cc2)[C@H]1C(=O)Nc1cccc2cccnc12 [MY-3A, (2S,3S)-1-acryloyl-3-(4-bromophenyl)-N-(quinolin-8-yl)azetidine-2-carboxamide] | 50.25%
4 | 54.25% | 95.5% | 80% | C=CC(=O)N1C[C@@H](c2ccc(Br)cc2)[C@H]1C(=O)Nc1cccc2cccnc12 [MY-1A, (2S,3R)-1-acryloyl-3-(4-bromophenyl)-N-(quinolin-8-yl)azetidine-2-carboxamide] | 69.75%
